According to patent US9045493B2, “Furo[3,2-b]- and thieno[3,2-b]pyridin derivatives” (Merck Patent GmbH, priority 2012, dated 2015):

Legend:
phospho-IRF3 @ Ser 386 = test: Cell test: dose response inhibition of phospho-IRF3 @ Ser 386 in MDA-MB-468 cells; format: cell-based; conditions: Homo sapiens, Poly(I:C) stimulation, read-out: IC50 (reference inhibitor, phospho-IRF3 cell test)
Source text: Dose Response Inhibition of Phospho-IRF3 @ Ser 386 Cell/MDAMB468/INH/PHOS/IMAG/pIRF3
This assay has been devised in order to assess the efficacy/potency of TBK1/IKKε inhibitor compounds based on the immunocytochemical detection of nuclear localised phospho-IRF3, a target directly downstream of TBK1.
Treatment with Polyinosine-polycytidylic acid (poly(I:C), a synthetic analog of doublestranded RNA (dsRNA), a molecular pattern associated with viral infection which is recognized by Toll-like receptor 3 (TLR3) is used to induce TBK1/IKKe activity and IRF3 phosphorylation at Ser386.
• Day 1: MDA-MB-468 cells are detached with HyQ-Tase, counted, and seeded into a 384-well clear bottom TC-surface plate at density of 10,000 cells per well in a total volume of 35 ul complete medium. Alternatively cells are directly seeded from frozen vials. • Day 2: Cells are pre-treated with inhibitor compounds for 1 h prior to Poly(I:C) stimulation. After 2 h of incubation with Poly(I:C), cells are fixed in (para)formaldehyde (PFA) and permeabilized with methanol (MeOH). The cells are then blocked and incubated with an anti-pIRF3 antibody at 4° C. overnight. • Day 3: The primary antibody is washed off, an AlexaFluor488-conjugated secondary is added, cells are counterstained with propidium iodide followed by image acquisition on IMX Ultra high content reader.

[1] = target: T1, TANK binding kinase (TBK1) (Homo sapiens, UniProt Q9UHD2); test: TBK1 enzyme assay (384-well Flashplate kinase assay); format: biochemical; conditions: 10 μM ATP, 120 Min at 30° C.
T1 sequence (Q9UHD2 1-729): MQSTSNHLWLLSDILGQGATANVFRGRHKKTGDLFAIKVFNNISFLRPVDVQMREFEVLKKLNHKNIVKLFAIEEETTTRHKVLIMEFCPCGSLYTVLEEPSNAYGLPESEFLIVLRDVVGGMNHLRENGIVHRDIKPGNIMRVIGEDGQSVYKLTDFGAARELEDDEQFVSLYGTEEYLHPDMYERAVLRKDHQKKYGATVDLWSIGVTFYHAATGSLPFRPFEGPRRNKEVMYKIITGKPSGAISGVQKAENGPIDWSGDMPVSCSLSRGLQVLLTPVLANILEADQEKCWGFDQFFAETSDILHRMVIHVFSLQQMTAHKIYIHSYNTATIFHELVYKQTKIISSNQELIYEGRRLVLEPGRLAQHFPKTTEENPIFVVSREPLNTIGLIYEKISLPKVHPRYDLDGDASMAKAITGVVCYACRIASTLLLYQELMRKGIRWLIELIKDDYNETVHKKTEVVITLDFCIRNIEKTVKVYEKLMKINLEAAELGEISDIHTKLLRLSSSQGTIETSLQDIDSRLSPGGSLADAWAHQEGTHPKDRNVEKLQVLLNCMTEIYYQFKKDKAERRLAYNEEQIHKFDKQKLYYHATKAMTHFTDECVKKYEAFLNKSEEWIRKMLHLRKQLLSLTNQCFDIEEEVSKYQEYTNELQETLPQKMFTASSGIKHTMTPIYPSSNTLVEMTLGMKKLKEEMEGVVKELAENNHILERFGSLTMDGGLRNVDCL
Summary of the method: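 Radiometric Flashplate assay: 0.6 nM TBK1, 800 nM biotinylated MELK-derived peptide and 10 μM ATP with 33P-ATP, 120 min at 30 °C in MOPS/Mg-acetate buffer pH 7.5. Stopped with EDTA; nonspecific signal defined with 100 nM staurosporine; IC50 from counted radioactivity.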

IKKε = target: T2, IKKε (Homo sapiens, UniProt Q14164); test: IKKε kinase assay (384-well Flashplate); format: biochemical; conditions: 10 μM ATP, 2 hours at 30° C.; read-out: IKKε enzyme assay IC50
T2 sequence (Q14164 1-716): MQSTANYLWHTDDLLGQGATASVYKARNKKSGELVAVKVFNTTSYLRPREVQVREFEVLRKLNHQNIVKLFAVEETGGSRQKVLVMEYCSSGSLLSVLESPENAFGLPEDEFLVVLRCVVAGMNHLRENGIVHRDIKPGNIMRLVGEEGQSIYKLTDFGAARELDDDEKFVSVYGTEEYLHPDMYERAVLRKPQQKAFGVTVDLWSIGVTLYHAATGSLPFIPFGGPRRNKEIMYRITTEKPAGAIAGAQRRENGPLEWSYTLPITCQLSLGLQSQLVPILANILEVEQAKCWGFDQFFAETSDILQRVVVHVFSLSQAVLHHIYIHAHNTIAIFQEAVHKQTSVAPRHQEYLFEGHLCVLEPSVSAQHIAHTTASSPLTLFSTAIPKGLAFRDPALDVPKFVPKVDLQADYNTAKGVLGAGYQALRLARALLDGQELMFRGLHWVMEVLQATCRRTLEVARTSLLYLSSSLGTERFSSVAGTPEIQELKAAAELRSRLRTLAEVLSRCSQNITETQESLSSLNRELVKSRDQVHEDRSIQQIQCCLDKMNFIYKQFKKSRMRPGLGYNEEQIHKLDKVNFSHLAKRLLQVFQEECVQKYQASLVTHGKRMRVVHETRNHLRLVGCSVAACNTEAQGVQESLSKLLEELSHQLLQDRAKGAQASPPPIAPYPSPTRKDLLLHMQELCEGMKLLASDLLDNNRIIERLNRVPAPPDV
Summary of the method: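 1 nM IKKε with 800 nM biotinylated IκBα(19-42) peptide and 10 μM ATP spiked with ^33P-ATP, 2 h at 30 °C in MOPS buffer pH 7.5. EDTA stop, Flashplate capture, washes, then radioactivity counted; IC50 derived.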

Row | SMILES | IC50 (phospho-IRF3 @ Ser 386) [nM] | IC50 [1] [nM] | IC50 (IKKε) [nM]
1 | N#Cc1cc(-c2ccnc3cc(-c4ccc(C(=O)NCCc5cccnc5)cc4)oc23)ccc1OC1CCOCC1 [Compound A81] |  | 300 to 3000 | < 300
2 | N#Cc1cc(-c2ccnc3cc(-c4ccc(C(=O)N5CCNCC5)cc4)oc23)ccc1OC1CCOCC1 [Compound A34, 5-{2-[4-(piperazine-1-carbonyl)-phenyl]-furo[3,2-b]pyridin-7-yl}-2-(tetrahydro-pyran-4-yloxy)-benzonitrile] |  | < 300 | < 300
3 | N#Cc1cc(-c2ccnc3cc(-c4ccc(C(=O)NCCN5CCNC5=O)cc4)oc23)ccc1OC1CCOCC1 [Compound A77] |  | < 300 | < 300
4 | N#Cc1cc(-c2ccnc3cc(-c4cnn(C5CCNCC5)c4)sc23)ccc1OC1CCOCC1 [Compound A96] |  | < 300 | < 300
5 | COc1cc(-c2cc3nccc(-c4ccc(OC5CCOC5)c(C#N)c4)c3o2)ccc1C(=O)N1CCNCC1 (centres unmarked) [Compound A68] |  | < 300 | < 300
6 | CN(CCO)C(=O)c1ccc(-c2cc3nccc(-c4ccc(OC5CCOC5)c(C#N)c4)c3s2)cc1 (centres unmarked) [Compound A95] |  | < 300 | < 300
7 | N#Cc1cc(-c2ccnc3cc(-c4ccc(C(=O)N5CCN(CCO)CC5)cc4)oc23)ccc1OC1CCOCC1 [Compound A84] |  | < 300 | < 300
8 | COc1cc(C(=O)N(C)CCO)ccc1-c1cc2nccc(-c3ccc(OC4CCOCC4)c(C#N)c3)c2o1 [Compound A115] |  | < 300 | < 300
9 | N#Cc1cc(-c2ccnc3cc(-c4ccc(C(=O)N5CCNC(=O)CC5)cc4F)oc23)ccc1OC1CCOCC1 [Compound A112] |  | < 300 | < 300
10 | CN(C)CCNC(=O)c1ccc(-c2cc3nccc(-c4ccc(OC5CCOCC5)c(C#N)c4)c3o2)cc1 [Compound A27, 4-{7-[3-cyano-4-(tetrahydro-pyran-4-yloxy)-phenyl]-furo[3,2-b]pyridin-2-yl}-N-(2-dimethylamino-ethyl)-benzamide] |  | < 300 | < 300
11 | CC(CO)(CCl)COc1ccc(-c2ccnc3cc(-c4ccc(C(=O)N5CCNCC5)cc4)oc23)cc1C#N (centres unmarked) [Compound A59] |  | < 300 | < 300
12 | COc1cc(-c2cc3nccc(-c4ccc(OC5CCOCC5)c(C#N)c4)c3o2)ccc1C(=O)N1CCOC(CCO)C1 (centres unmarked) [Compound A103] |  | < 300 | < 300
13 | COc1cc(-c2cc3nccc(-c4ccc(OCC5CC5)c(C#N)c4)c3o2)ccc1C(=O)N1CCNCC1 [Compound A50] |  | < 300 | < 300
14 | CN(CCO)C(=O)c1ccc(-c2cc3nccc(-c4ccc(OCC5(C)COC5)c(C#N)c4)c3o2)cc1 [Compound A62] |  | < 300 | < 300
15 | COc1ccc(-c2cc3nccc(-c4ccc(OC5CCOCC5)c(C#N)c4)c3o2)cc1 [Compound A7, 5-[2-(4-methoxy-phenyl)-furo[3,2-b]pyridin-7-yl]-2-(tetrahydro-pyran-4-yloxy)-benzonitrile] |  | 300 to 3000 | 300 to 3000

The remaining lines, values ahead:

Row | IC50 (phospho-IRF3 @ Ser 386) [nM] | IC50 [1] [nM] | IC50 (IKKε) [nM] | SMILES
16 | 200 to 800 |  |  | O=C(NCCCNc1nc(Nc2cccc(NC(=O)N3CCCC3)c2)ncc1I)c1cccs1 [BX-795]
17 |  | < 300 | < 300 | N#Cc1cc(-c2ccnc3cc(-c4ccc(C(=O)NCCN5CCC(F)(F)CC5)cc4)oc23)ccc1OC1CCOCC1 [Compound A83]
18 |  | < 300 | < 300 | N#Cc1cc(-c2ccnc3cc(-c4cnn(CCCO)c4)oc23)ccc1OC1CCOCC1 [Compound A54]
19 |  | < 300 | < 300 | COc1cc(C(=O)N[C@H]2CCCNC2)ccc1-c1cc2nccc(-c3ccc(OC4CCOCC4)c(C#N)c3)c2o1 [Compound A118]
20 |  | 300 to 3000 | 300 to 3000 | CNC(=O)c1ccc(-c2cc3nccc(-c4ccc(OC5CCOCC5)c(C#N)c4)c3o2)cc1 [Compound A19, 4-{7-[3-cyano-4-(tetrahydro-pyran-4-yloxy)-phenyl]-furo[3,2-b]pyridin-2-yl}-N-methyl-benzamide]
21 |  | < 300 | < 300 | N#Cc1cc(-c2ccnc3cc(-c4ccc(C(=O)N5CCNC(=O)CC5)cc4)oc23)ccc1OC1CCOCC1 [Compound A86]
22 |  | < 300 | < 300 | COc1cc(-c2cc3nccc(-c4ccc(OC5CCOCC5)c(C#N)c4)c3o2)ccc1C(=O)N[C@H]1CCCNC1 [Compound A94]
23 |  | 300 to 3000 | 300 to 3000 | CCN(CCOC)C(=O)c1cccc(-c2cc3nccc(-c4ccc(OC5CCOCC5)c(C#N)c4)c3o2)c1 [Compound A26a, 3-{7-[3-cyano-4-(tetrahydro-pyran-4-yloxy)-phenyl]-furo[3,2-b]pyridin-2-yl}-N-ethyl-N-(2-methoxy-ethyl)-benzamide]
24 |  | < 300 | < 300 | N#Cc1cc(-c2ccnc3cc(-c4cnn(C5CCN(CCO)CC5)c4)sc23)ccc1OC1CCOCC1 [Compound A97]
25 |  | < 300 | < 300 | CN1CCN(C(=O)c2ccc(-c3cc4nccc(-c5ccc(N6CCCC6)c(C#N)c5)c4o3)cc2)CC1 [Compound A74]
26 |  | 3000 to 50000 | 300 to 3000 | N#Cc1cc(-c2ccnc3cc(-c4cnc5ccccc5c4)oc23)ccc1OC1CCOCC1 [Compound A57]
27 |  | < 300 | < 300 | COc1cc(-c2cc3nccc(-c4ccc(OC5CCOCC5)c(C#N)c4)c3o2)ccc1C(=O)NCC(N)=O [Compound A93]
